The text below walks through data of patent US8119633B2, “Substituted sulfonamide compounds” (Gruenenthal GmbH, priority 2007, dated 2012).

Test [1] deals with T1, human bradykinin receptor 1 (B1R) (Homo sapiens, UniProt P46663).
T1 construct: expressed in transfected cells; host or cells: CHO K1 cells
T1 sequence (P46663 1-353): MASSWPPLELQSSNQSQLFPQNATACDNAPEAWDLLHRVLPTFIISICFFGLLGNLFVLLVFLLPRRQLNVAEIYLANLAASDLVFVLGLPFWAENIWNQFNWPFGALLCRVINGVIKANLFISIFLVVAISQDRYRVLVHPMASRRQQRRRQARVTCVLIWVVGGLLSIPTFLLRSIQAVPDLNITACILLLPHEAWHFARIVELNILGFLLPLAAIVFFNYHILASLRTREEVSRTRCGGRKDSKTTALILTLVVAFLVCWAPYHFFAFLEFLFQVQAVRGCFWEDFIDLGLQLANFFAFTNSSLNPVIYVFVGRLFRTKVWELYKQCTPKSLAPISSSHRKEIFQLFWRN
The experiment in a line: Functional study on the bradykinin receptor 1 (B1R), human: FLIPR Ca2+ influx assay. In kind it is cell-based. The following applies: test substance 10 μM, CHO K1 cells transfected with human B1R, Lys-Des-Arg9-bradykinin at EC80, Ca2+ influx (Fluo-4, FLIPR); for inhibition at 10 µM: read-out: B1R antagonism, human [10 μM] % inhibition. Summed up: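 CHO K1 cells stably expressing human B1R were loaded with Fluo-4, and Ca2+ fluorescence was read on FLIPR (ex 488/em 540 nm). Compound was added first (10 μM for % activation against Lys-Des-Arg9-bradykinin ≥0.5 nM). After 10-20 min, Lys-Des-Arg9-bradykinin was added at EC80 for % inhibition; IC50 came from concentration series, n=2-3, N≥2.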

Test [2] has as its target T2, human μ-opiate receptor (Homo sapiens, UniProt P35372).
T2 construct: purchased PerkinElmer Life Sciences, Zaventem, Belgium RB-HOM; host or cells: CHO-K1 cells (membrane preparation)
In words: Affinity for the human μ-opiate receptor ([3H]-naloxone displacement, SPA). Conditions: test substance 1 μmol/l, inhibition of specific [3H]-naloxone binding, CHO-K1 receptor membrane preparation; for inhibition at 1 µM: read-out: μ-Opioid receptor [1 μM] % inhibition. The protocol:
Studies of the Effectiveness of the Compounds According to the Invention Method for determining the affinity for the human μ-opiate receptor
The receptor affinity for the human μ-opiate receptor is determined in a homogeneous batch on microtitre plates. To this end, serial dilutions of the substances to be tested are incubated for 90 minutes at room temperature with a receptor membrane preparation (15-40 μg of protein/250 μl of incubation batch) of CHO-K1 cells, which express the human μ-opiate receptor (RB-HOM receptor membrane preparation from PerkinElmer Life Sciences, Zaventem, Belgium), in the presence of 1 nmol/l of the radioactive ligand [^3H]-naloxone (NET719, PerkinElmer Life Sciences, Zaventem, Belgium) and 1 mg of WGA-SPA beads (wheatgerm agglutinin SPA beads from Amersham/Pharmacia, Freiburg, Germany) in a total volume of 250 μl. The incubation buffer used is 50 mmol/l of Tris-HCl supplemented with 0.06 wt. % bovine serum albumin. In order to determine non-specific binding, 100 μmol/l of naloxone is additionally added. When the ninety-minute incubation time has ended, the microtitre plates are centrifuged off for 20 minutes at 1000 g and the radioactivity is measured in a β-counter (Microbeta-Trilux, PerkinElmer Wallac, Freiburg, Germany). The percentage displacement of the radioactive ligand from its binding to the human μ-opiate receptor at a concentration of the test substances of 1 μmol/l is determined and stated as the percentage inhibition of specific binding. On the basis of the percentage displacement by different concentrations of the test substances, IC50 inhibitory concentrations, which effect 50% displacement of the radioactive ligand, are calculated. Ki values for the test substances are obtained by conversion by means of the Cheng-Prusoff equation.

In test [3] the target is T3, bradykinin receptor 1 (B1R) of the rat (Rattus norvegicus, UniProt P97583).
T3 construct: expressed in transfected cells; host or cells: CHO K1 cells
T3 sequence (P97583 1-337): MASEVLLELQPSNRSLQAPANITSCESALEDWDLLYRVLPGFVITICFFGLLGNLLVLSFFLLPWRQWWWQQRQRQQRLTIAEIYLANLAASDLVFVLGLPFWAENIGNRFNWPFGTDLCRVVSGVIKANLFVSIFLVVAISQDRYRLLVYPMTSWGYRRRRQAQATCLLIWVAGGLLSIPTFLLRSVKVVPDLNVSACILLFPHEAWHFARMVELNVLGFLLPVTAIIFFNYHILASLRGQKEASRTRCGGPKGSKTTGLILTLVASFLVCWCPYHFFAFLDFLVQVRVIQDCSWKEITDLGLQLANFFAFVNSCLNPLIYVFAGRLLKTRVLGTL
The experiment in a line: Functional study on the bradykinin receptor 1 (B1R), rat: FLIPR Ca2+ influx assay. In kind it is cell-based. The following applies: test substance 10 μM, CHO K1 cells transfected with rat B1R, Des-Arg9-bradykinin at EC80, Ca2+ influx (Fluo-4, FLIPR); for inhibition at 10 µM: read-out: B1R antagonism, rat [10 μM] % inhibition. Put shortly: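 CHO K1 cells stably expressing rat B1R, Fluo-4-loaded, read on FLIPR (ex 488/em 540 nm, peak fluorescence). Test substances added first (agonism vs 10 μM Des-Arg9-bradykinin), then after 10-20 min Des-Arg9-bradykinin at EC80; % inhibition and IC50 from concentration series, n=2-3, N≥2.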

Structures are written as SMILES.

T2 sequence (P35372 whole entry): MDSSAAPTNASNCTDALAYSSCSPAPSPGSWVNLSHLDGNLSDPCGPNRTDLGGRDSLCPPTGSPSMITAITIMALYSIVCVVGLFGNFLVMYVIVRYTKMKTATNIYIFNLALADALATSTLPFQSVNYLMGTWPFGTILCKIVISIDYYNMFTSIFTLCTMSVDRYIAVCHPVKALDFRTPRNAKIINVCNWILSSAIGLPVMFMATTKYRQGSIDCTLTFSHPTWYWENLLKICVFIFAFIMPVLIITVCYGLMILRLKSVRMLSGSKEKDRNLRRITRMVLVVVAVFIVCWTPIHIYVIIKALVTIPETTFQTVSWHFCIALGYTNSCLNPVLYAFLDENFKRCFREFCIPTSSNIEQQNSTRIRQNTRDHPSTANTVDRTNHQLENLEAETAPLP

The inhibition is the relative decrease from the control value, in per cent. For `COc1cc(C)c(S(=O)(=O)N(C)CCCNC(=O)NC2CCC(C(c3ccccc3)N(C)C)CC2)c(C)c1C` (stereo not drawn) [Example 1, N—(3-{3-[4-(Dimethylaminophenylmethyl)cyclohexyl]ureido}propyl)-4-methoxy-2,3,6,N-tetramethylbenzenesulfonamide], the results for the inhibition at 10 µM in test [1] and in test [3] were 71.5% and 56%, respectively. Moreover, the inhibition at 1 µM in test [2] came out at 94%.
Consider `COc1cc(C)c(S(=O)(=O)N(C)CCCNC(=O)NCC2CCC(C(c3ccccc3)N(C)C)CC2)c(C)c1C` (stereo not drawn) [Example 2], for which, in test [1], the “B1R antagonism, human [10 μM] % inhibition” value was 55.6%. Moreover, in test [2], the “μ-Opioid receptor [1 μM] % inhibition” value worked out at 97%. Also, the “B1R antagonism, rat [10 μM] % inhibition” value in test [3] was 43%.
For `COc1cc(C)c(S(=O)(=O)N(C)CCCNC(=O)NC2CCC(C(c3ccccc3)N3CCCC3)CC2)c(C)c1C` (stereo not drawn) [Example 3, 4-Methoxy-2,3,6,N-tetramethyl-N—(3-{3-[4-(phenylpyrrolidin-1-ylmethyl) -cyclohexyl]-ureido}propyl)benzenesulfonamide], the inhibition at 10 µM in test [1] is 80.8%; in test [3], 58%. Also, the inhibition at 1 µM in test [2] is 71%.
For `CN(C)C(c1ccccc1)C1CCC(NC(=O)CCCCN(C)S(=O)(=O)c2c(Cl)cc(Cl)cc2Cl)CC1` (stereo not drawn) [Example 5, N—(4-((Dimethylamino)(phenyl)methyl)cyclohexyl)-5-(2,4,6-trichloro-N-methylphenylsulfonamido)pentanamide], in that order: 101%, 60% and 89%.
On to `CN(CCCCC(=O)NC1CCC(C(c2ccccc2)N2CCCCC2)CC1)S(=O)(=O)c1c(Cl)cc(Cl)cc1Cl` (stereo not drawn) [Example 6, N—(4-(Phenyl(piperidin-1-yl)methyl)cyclohexyl)-5-(2,4,6-trichloro-N-methylphenylsulfonamido)pentanamide], for which the inhibition at 10 µM came to 75.1% in test [1] and 41% in test [3]. Moreover, in test [2], the inhibition at 1 µM came to 29%.
The corresponding values for `CN(C)C(c1ccccc1)C1CCC(CNC(=O)CCCCN(C)S(=O)(=O)c2c(Cl)cc(Cl)cc2Cl)CC1` (stereo not drawn) [Example 7, N—((4-((Dimethylamino)(phenyl)methyl)cyclohexyl)methyl)-5-(2,4,6-trichloro-N -methylphenylsulfonamido)pentanamide] are 102%, 59% and 96%.
For `CN(C)C(c1ccccc1)C1CCC(CNC(=O)CC2CCCCN2S(=O)(=O)c2cccc(C(F)(F)F)c2)CC1` (stereo not drawn) [Example 8, N—((4-((Dimethylamino)(phenyl)methyl)cyclohexyl)methyl)-2-(1-(3-(trifluoromethyl)phenylsulfonyl)piperidin-2-yl)acetamide], in that order: 71.4%, 9% and 94%.
For the compound `O=C(CC1C(=O)Nc2ccccc2N1S(=O)(=O)c1ccc(Cl)c(Cl)c1)NC1CCC(C(c2ccccc2)N2CCOCC2)CC1` (stereo not drawn) [Example 54, 2-[1-(3,4-dichloro-benzenesulfonyl)-3-oxo-1,2,3,4-tetrahydro-quinoxalin-2-yl]-N-[4-(morpholin-4-yl-phenyl-methyl)-cyclohexyl]-acetamide], the inhibition at 10 µM came out at 105% in test [1] and 44% in test [3]. In test [2], the inhibition at 1 µM was found to be 12%.
Turning to `O=C(CC1C(=O)NCCN1S(=O)(=O)c1ccc(Cl)cc1Cl)NCC1CCC(C(c2ccccc2)N2CCOCC2)CC1` (stereo not drawn) [Example 55, 2-[1-(2,4-dichloro-benzenesulfonyl)-3-oxo-piperazin-2-yl]-N-[4-(morpholin-4-yl-phenyl-methyl)-cyclohexylmethyl]-acetamide], the inhibition at 10 µM is 103% in test [1] and 26% in test [3]. Moreover, in test [2], the inhibition at 1 µM turned out to be 24%.
For the compound `O=C(CC1C(=O)NCCN1S(=O)(=O)c1ccc(Cl)cc1Cl)NCC1CCC(C(CCc2ccccc2)N2CCOCC2)CC1` (stereo not drawn) [Example 56, 2-[1-(2,4-dichloro-benzenesulfonyl)-3-oxo-piperazin-2-yl]-N-[4-(1-morpholin-4-yl-3-phenyl-propyl)-cyclohexylmethyl]-acetamide], the inhibition at 10 µM turned out to be 104% in test [1] and 20% in test [3]. Besides, in test [2], the inhibition at 1 µM came to 11%.
The corresponding values for `O=C(CC1C(=O)NCCN1S(=O)(=O)c1ccc(Cl)cc1Cl)NCC1CCC(C(CCc2ccccc2)N2CCCC2)CC1` (stereo not drawn) [Example 57, 2-[1-(2,4-dichloro-benzenesulfonyl)-3-oxo-piperazin-2-yl]-N-[4-(3-phenyl-1-pyrrolidin-1-yl-propyl)-cyclohexylmethyl]-acetamide] are 104%, 27% and 25%.
`O=C(CC1C(=O)NCCN1S(=O)(=O)c1ccc(Cl)cc1Cl)NCC1CCC(C(c2ccccc2)N2CCCC2)CC1` (stereo not drawn) [Example 58, 2-[1-(2,4-dichloro-benzenesulfonyl)-3-oxo-piperazin-2-yl]-N-[4-(phenyl-pyrrolidin-1-yl-methyl)-cyclohexylmethyl]-acetamide]: the inhibition at 10 µM was found to be 104% in test [1] and 11% in test [3]. The inhibition at 1 µM in test [2] was 70%.
For `O=C(CC1C(=O)NCCN1S(=O)(=O)c1ccc(Cl)cc1Cl)NC1CCC(C(CCc2ccccc2)N2CCCCC2)CC1` (stereo not drawn) [Example 59, 2-[1-(2,4-dichloro-benzenesulfonyl)-3-oxo-piperazin-2-yl]-N-[4-(3-phenyl-1-piperidin-1-yl-propyl)-cyclohexyl]-acetamide], in that order: 104%, 27% and 61%.
Turning to `O=C(CC1C(=O)NCCN1S(=O)(=O)c1ccc(Cl)cc1Cl)NC1CCC(C(CCc2ccccc2)N2CCOCC2)CC1` (stereo not drawn) [Example 60, 2-[1-(2,4-dichloro-benzenesulfonyl)-3-oxo-piperazin-2-yl]-N-[4-(1-morpholin-4-yl-3-phenyl-propyl)-cyclohexyl]-acetamide], the inhibition at 10 µM in test [1] was found to be 104%; in test [3], 8%. Also, in test [2], the inhibition at 1 µM amounted to 54%.
Consider `CN1CCN(C(c2ccccc2)C2CCC(NC(=O)CC3C(=O)NCCN3S(=O)(=O)c3ccc(Cl)cc3Cl)CC2)CC1` (stereo not drawn) [Example 61, 2-[1-(2,4-dichloro-benzenesulfonyl)-3-oxo-piperazin-2-yl]-N-{4-[(4-methyl-piperazin-1-yl)-phenyl-methyl]-cyclohexyl}-acetamide], for which the inhibition at 10 µM in test [1] turned out to be 104%; in test [3], 39%. The inhibition at 1 µM in test [2] was 34%.
